The record followed here is patent US20030219785A1, “Targeted drug delivery methods” (Vanderbilt University, priority 2002, published 2003).

“Also recorded” adds a separate entry of the source.

In one experiment the test system is GL-261 tumors. In words: Tumor volume assessment, GL-261. It counts as in vivo, mouse. Particulars: group 3: cisplatin 0.08 mg tail vein days 1-4, no irradiation. The text has this:
H460 cell line forms tumor in nude mice. […] Forty mice bearing GI-261 tumors on their right hind limbs were divided eight groups (five mice per group). An equal number of large and intermediate size (11-15 mm) tumors were present in each group. The first group received no treatment as the control group. The second group received radiation therapy (3 Gy×2 fractions) on days 1 and 3. Irradiated mice were immobilized in […] chambers and the entire body was shielded with lead, except for tumor bearing hind limb. The third group received 0.08 mg/100 μl of cisplatin (Sigma) in PBS by tail vein injection on days 1, 2, 3 and 4. The forth group received 0.5 mg of nanomag beads-10 μg of WGA-0.08 mg cisplatin cocktail in 100 μl PBS by tail vein injection on days 1, 2, 3 and 4. The fifth group received irradiation of 3 Gy on days 1 and 3 and the same treatments as group 3 after irradiation on days 1, 2, 3 and 4. […] Tumors volumes were measured 3 times weekly using skim calipers as described previously (see […]., et al., Nat. Med. 1:786-791 (1995); Hanson, et al., Radiation Research 142:281-287 (1995)) starting on day 1 and ending on the eighth measurement, or when the tumor volume reached 5 times that of the beginning volumes. Data was calculated as the percentage of original (day 1) tumor volume and graphed as fractional tumor volume+/-standard deviation (SD) for each treatment group. […]

In a further experiment the test system is H460 tumors. Put plainly: Tumor volume assessment, H460. Format: in vivo, mouse. The settings on record: irradiation 3 Gy x2 + cisplatin 0.08 mg days 1-4. As to the method:
H460 cell line forms tumor in nude mice. […] Twenty mice bearing H460 tumors with a range of 10-13 mm of diameter on their right hind limbs were divided into four groups (five mice per group). The first group received no treatment as the control group. The second group received radiation therapy (3 Gy×2 fraction) on days 1 and 3. The third group received radiation as […] and 0.08 mg/100 μl of cisplatin in PBS by tail vein injection after irradiation on days 1, 2, 3 and 4. The forth group received radiation as […] and 0.5 mg of nanomag beads-10 μg of WGA-0.08 mg of cisplatin cocktail in 100 μl PBS by tail vein injection after irradiation on days 1, 2, 3 and 4 with 15 minutes of magnetic force field after each time injection. Tumors volumes were measured 3 times weekly using skim calipers as described previously (see […]., et al., Nat. Med. 1:786-791 (1995); Hanson, et al., Radiation Research 142:281-287 (1995)) starting on day 1 and ending on the eighth measurement, or when the tumor volume reached 5 times that of the beginning volumes. Data was calculated as the percentage of original (day 1) tumor volume and graphed as fractional tumor volume+/-standard deviation (SD) for each treatment group. […]

The test system of experiment [1] is inflamed irradiated vasculature of LLC tumor. Put plainly: WGA-FITC binding in LLC tumor vascular window model. Format: in vivo, mouse. Particulars: LLC window irradiated 2.5 Gy vs 0 Gy; 100 μl WGA-FITC tail vein; pictures 60 min after injection.
The subject of experiment [2] is endothelial cells of tumors. In words: Electron microscopy of WGA binding. It counts as in vivo.

As to `N.N.[Cl][Pt][Cl]` [cisplatin], in the experiment on GL-261 tumors, the tumor growth delay fell in the range of 3 to 4 days. Further, the “delay of tumor growth” value with H460 tumors stood at 11 days.

As for wheat germ agglutinin [WGA], the “WGA-FITC binding to tumor vasculature” value in experiment [1] was “efficiently and specifically bind; also recorded: much greater binding ability”. Further, the “location of WGA binding” value in experiment [2] was “most WGA binding was located at endothelial intercellular gaps”.
